{"source": "paper PMC3108608", "about": "(Frontiers in Pharmacology, 2011)", "key": {"[1]": {"system": "carrageenan-induced mouse paw edema", "assay": "Carrageenan-induced paw edema in mice", "format": "in vivo", "details": "for ED50 paw edema formation: i.p., areas under the curves 2-6 h", "procedure": "Mice were divided into groups (n = 10 for each group) and lightly anesthetized with enflurane 4% mixed with O2, 0.5 l min^−1, N2O 0.5 l min^−1. Each group of animals received subplantar administration of saline (0.05 ml) or of λ-carrageenan type IV 1% (w v^−1, 0.05 ml) in saline. The paw was marked in order to immerge it always at the same extent in the measurement chamber. The volume was measured by using a hydroplethismometer, specially modified for small volumes (Ugo Basile, Milan, Italy), immediately before subplantar injection and 2, 4, and 6 h thereafter (Posadas et al., [2004]). The assessment of paw volume was performed always in double blind and by the same operator. The increase in paw volume was calculated by subtracting the initial paw volume (basal) to the paw volume measured at each time point."}, "[2]": {"system": "mPGES-1 expression", "assay": "Induction of mPGES-1 in IL-1β-stimulated A549 cells (Western blot)", "format": "cell-based", "details": "Homo sapiens, 24 h, read-out: EC50 of inhibition of mPGES-1 induction", "procedure": "(§1) Cells (4 × 10^6 cells) were resuspended in 50 μl PBS buffer pH 7.2, mixed with the same volume of 2 × SDS/PAGE sample loading buffer (20 mM Tris–HCl, pH 8, 2 mM EDTA, 5% (m v^−1) SDS, and 10% (v v^−1) β-mercaptoethanol), and boiled for 5 min at 95°C. Aliquots (20 μl) corresponding to equivalents of 0.8 × 10^6 cells were mixed with 4 μl glycerol/0.1% bromophenol blue (1:1, v v^−1), and proteins were separated by SDS-PAGE. After electroblotting to nitrocellulose membrane (GE Healthcare, Munich, Germany) and blocking with 5% BSA for 1 h at room temperature, membranes were washed and incubated with primary antibodies overnight at 4°C. The membranes were washed and incubated with a 1:1000 dilution of alkaline phosphatase-conjugated immunoglobulin G for 3 h at room temperature. After washing, proteins were visualized with nitro blue tetrazolium and 5-bromo-4-chloro-3-indolylphosphate.\n(§2) Cells were harvested after 24 h, total cell lysates were prepared and analyzed for the induction of COX-2 (72 kDa), mPGES-1 (16 kDa) and cleaved PARP (89 kDa) using SDS-PAGE and Western blotting. β-Actin (45 kDa) was used as loading control. Data are representatives of two to three independent experiments."}, "[3]": {"system": "COX-2 expression", "assay": "Induction of COX-2 in IL-1β-stimulated A549 cells (Western blot)", "format": "cell-based", "details": "Homo sapiens, 24 h, read-out: EC50 of inhibition of COX-2 induction", "procedure": "as §1, §2"}, "[4]": {"target": "5-lipoxygenase (5-LO)", "set-up": "method as in Albert et al., 2002; Feisst et al., 2009", "details": "neutrophils; ref Albert et al., 2002; Feisst et al., 2009; read-out: IC50 of leukotriene biosynthesis; cited from earlier work"}, "[5]": {"system": "A549 lung carcinoma cells", "assay": "Apoptosis of A549 cells monitored by cleavage of PARP", "format": "cell-based", "details": "Homo sapiens, A549, 24 h", "procedure": "as §1, §2"}, "[6]": {"system": "carrageenan-induced pleurisy", "assay": "Carrageenan-induced pleurisy in rats", "format": "in vivo, rat", "details": "4 h after carrageenan; for PGE2 in exudate: vehicle 1.81 ± 0.16; for Inflammatory cells: vehicle 103.0 ± 15.4"}, "[7]": {"system": "A549 cells", "assay": "cells", "details": "Homo sapiens, A549, 24 h, read-out: EC50 of reduction of cell viability"}, "[8]": {"system": "COX-2", "set-up": "method as in Albert et al., 2002; Feisst et al., 2009", "details": "monocytic Mono Mac 6 cells; ref Albert et al., 2002; Feisst et al., 2009; read-out: COX-2 activity (6-keto PGF1α synthesis), not affected up to; cited from earlier work"}, "[9]": {"system": "COX-1", "set-up": "method as in Albert et al., 2002; Feisst et al., 2009", "details": "human platelets; ref Albert et al., 2002; Feisst et al., 2009; cited from earlier work"}, "[10]": {"system": "PGE2 formation in LPS-stimulated human whole blood", "assay": "PGE2 formation in LPS-stimulated human whole blood", "format": "cell-based", "details": "controls: MK-886 30 μM, MD-52 6 μM, indomethacin 50 μM, celecoxib 20 μM; LPS 5 h"}, "[11]": {"system": "6-keto PGF1α formation in LPS-stimulated human whole blood", "assay": "6-keto PGF1α formation in LPS-stimulated human whole blood", "format": "cell-based", "details": "MK-886 30 μM, MD-52 6 μM; LPS 5 h"}, "[12]": {"system": "TXB2 formation in LPS-stimulated human whole blood", "assay": "TXB2 formation in LPS-stimulated human whole blood", "format": "cell-based", "details": "MK-886 30 μM, MD-52 6 μM; LPS 5 h"}, "[13]": {"target": "T1, mPGES-1 (Homo sapiens, UniProt O14684)", "T1 construct": "microsomal preparations of IL-1β-stimulated A549 cells, a rich source of mPGES-1; endogenous in cells; host or cells: A549 cells, IL-1β-stimulated, microsomal fraction", "T1 sequence (O14684 1-152)": "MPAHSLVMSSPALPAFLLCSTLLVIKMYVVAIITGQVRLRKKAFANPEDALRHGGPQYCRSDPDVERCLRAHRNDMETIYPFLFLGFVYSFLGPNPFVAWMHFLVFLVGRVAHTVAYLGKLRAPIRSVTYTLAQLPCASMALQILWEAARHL", "assay": "PGE2 synthase activity in microsomes of IL-1β-stimulated A549 cells", "format": "biochemical", "details": "for IC50: 15 min pre-incubation at 4°C, 20 μM PGH2, 1 min, read-out: IC50 of PGE2 formation (mPGES-1 activity)"}, "[14]": {"system": "12-HHT formation (mainly derived from platelet COX-1) in human whole blood", "assay": "12-HHT formation in human whole blood (A23187 plus AA)", "format": "cell-based", "details": "indomethacin 20 μM, aspirin 30 μM"}, "[15]": {"details": "Hyp 4 mg kg^−1 i.p., indomethacin 5 mg kg^−1"}, "[16]": {"details": "i.p. 30 min before, Hyperforin 4 mg kg^−1, Indomethacin 5 mg kg^−1"}}, "data": [{"smiles": "CC(C)=CCCC1(C)C(CC=C(C)C)CC2(CC=C(C)C)C(=O)C1(C(=O)C(C)C)C(=O)C(CC=C(C)C)=C2O", "note": "(centres unmarked) [Hyp, Hyperforin]", "values": [{"measurement": "inhibition of edema formation from areas under the curves (2-6 h)", "setting": "[1]; 0.25 mg kg^−1 i.p.", "result": "27 % of control"}, {"measurement": "reduction of peak paw edema response at 4 h", "setting": "[1]; 0.25 mg kg^−1 i.p. 30 min before carrageenan", "result": 35, "unit": "%"}, {"measurement": "inhibition of edema formation from areas under the curves (2-6 h)", "setting": "[1]; 1 mg kg^−1 i.p.", "result": "49 % of control"}, {"measurement": "reduction of peak paw edema response at 4 h", "setting": "[1]; 1 mg kg^−1 i.p. 30 min before carrageenan", "result": 63, "unit": "%"}, {"measurement": "inhibition of edema formation from areas under the curves (2-6 h)", "setting": "[1]; 4 mg kg^−1 i.p.", "result": "76 % of control"}, {"measurement": "reduction of peak paw edema response at 4 h", "setting": "[1]; 4 mg kg^−1 i.p. 30 min before carrageenan", "result": 78, "unit": "%"}, {"measurement": "ED50 paw edema formation", "setting": "[1]", "result": 1, "unit": "mg/kg"}, {"measurement": "EC50", "setting": "[2]", "result": "1000 to 3000", "unit": "nM"}, {"measurement": "EC50", "setting": "[3]", "result": "1000 to 3000", "unit": "nM"}, {"measurement": "IC50", "setting": "[4]", "result": "1000 to 2000", "unit": "nM"}, {"measurement": "EC50", "setting": "[5]", "result": "~3000", "unit": "nM"}, {"measurement": "attenuation of exudate formation", "setting": "[6]; [15]", "result": 64, "unit": "%"}, {"measurement": "PGE2 in exudate", "setting": "[6]; [16]", "result": "0.97 ± 0.15", "unit": "ng/rat"}, {"measurement": "Inflammatory cells", "setting": "[6]; [16]", "result": "51.3 ± 7.2 ×10^6"}, {"measurement": "EC50", "setting": "[7]", "result": "~3000", "unit": "nM"}, {"measurement": "IC50", "setting": "[8]", "result": "> 30000", "unit": "nM"}, {"measurement": "IC50", "setting": "[9]", "result": 3000, "unit": "nM"}]}, {"smiles": "Clc1ccccc1-c1nc2c3ccccc3c3ccccc3c2[nH]1", "note": "[MD-52, 2-(2-chlorophenyl)-1H-phenanthro[9,10-d]-imidazole]", "values": [{"measurement": "effect on PGE2 formation", "setting": "[10]", "result": "only partially inhibited"}, {"measurement": "effect on 6-keto PGF1α formation", "setting": "[11]", "result": "failed to suppress"}, {"measurement": "effect on TXB2 formation", "setting": "[12]", "result": "failed to suppress"}]}, {"smiles": "CC(C)c1ccc2c(c1)c(SC(C)(C)C)c(CC(C)(C)C(=O)O)n2Cc1ccc(Cl)cc1", "note": "[MK-886]", "values": [{"measurement": "effect on PGE2 formation", "setting": "[10]", "result": "only partially inhibited"}, {"measurement": "effect on 6-keto PGF1α formation", "setting": "[11]", "result": "failed to suppress"}, {"measurement": "effect on TXB2 formation", "setting": "[12]", "result": "failed to suppress"}]}, {"smiles": "Cc1c(O)cc(O)c(C(=O)C(C)C)c1O", "note": "[acylphloroglucinol core]", "values": [{"measurement": "IC50", "setting": "[13]", "result": "> 10000", "unit": "nM"}]}, {"smiles": "CC(=O)Oc1ccccc1C(=O)O", "note": "[aspirin]", "values": [{"measurement": "effect on 12-HHT formation", "setting": "[14]", "result": "almost completely blocked"}]}, {"smiles": "Cc1ccc(-c2cc(C(F)(F)F)nn2-c2ccc(S(N)(=O)=O)cc2)cc1", "note": "[celecoxib]", "values": [{"measurement": "effect on PGE2 formation", "setting": "[10]", "result": "effectively reduced"}]}, {"smiles": "CC(C)=CCC1C(=O)C(C(=O)CC(C)C)=C(O)C(O)(CC=C(C)C)C1=O", "note": "(centres unmarked) [humulone]", "values": [{"measurement": "IC50", "setting": "[13]", "result": "> 10000", "unit": "nM"}]}, {"smiles": "COc1ccc2c(c1)c(CC(=O)O)c(C)n2C(=O)c1ccc(Cl)cc1", "note": "[indomethacin]", "values": [{"measurement": "effect on PGE2 formation", "setting": "[10]", "result": "effectively reduced"}, {"measurement": "inhibition of edema formation from areas under the curves (2-6 h)", "setting": "[1]; 5 mg kg^−1 i.p.", "result": "52 % of control"}, {"measurement": "reduction of peak paw edema response at 4 h", "setting": "[1]; 5 mg kg^−1 i.p. 30 min before carrageenan", "result": 57, "unit": "%"}, {"measurement": "ED50 paw edema formation", "setting": "[1]", "result": 5, "unit": "mg/kg"}, {"measurement": "attenuation of cell infiltration", "setting": "[6]; [15]", "result": 65, "unit": "%"}, {"measurement": "attenuation of exudate formation", "setting": "[6]; [15]", "result": 75, "unit": "%"}, {"measurement": "Exudate volume", "setting": "[6]; i.p. 30 min before, Hyperforin 4 mg kg^−1, Indomethacin 5 mg kg^−1, vehicle 0.44 ± 0.04", "result": "0.11 ± 0.04", "unit": "mL"}, {"measurement": "PGE2 in exudate", "setting": "[6]; [16]", "result": "0.19 ± 0.05", "unit": "ng/rat"}, {"measurement": "Inflammatory cells", "setting": "[6]; [16]", "result": "35.8 ± 4.2 ×10^6"}, {"measurement": "effect on 12-HHT formation", "setting": "[14]", "result": "almost completely blocked"}]}, {"smiles": "CC(C)CCC[C@]1(C)[C@@H](CCC(C)C)C[C@@]2(CCC(C)C)C(=O)[C@]1(C(=O)C(C)C)C(=O)C(CCC(C)C)=C2O", "note": "[octahydro-hyperforin]", "values": [{"measurement": "mPGES-1 inhibition compared with Hyp", "setting": "[13]; 20 μM PGH2", "result": "equally effective"}]}]}
